Measurements taken from US8263776B2, “Inhibitors of c-Met protein kinase” (Vertex Pharmaceuticals Incorporated, priority 2009, dated 2012).

Tests used:
[1] = target: c-Met (Homo sapiens, UniProt P08581); assay: c-Met kinase inhibition assay (radiometric, 33P-ATP, polyE4Y substrate); assay type: biochemical; conditions: 0.5 nM c-Met, 35 μM ATP, competitive tight-binding fit
Protocol: The compounds of the invention were screened for their ability to inhibit c-Met kinase using a standard radiometric assay. Briefly, in this kinase assay the transfer of the terminal ^33P-phosphate in ^33P-ATP to substrate polyE4Y is interrogated. The assay was carried out in 96-well plates to a final volume of 100 μL per well containing 0.5 nM c-Met, 100 mM HEPES (pH 7.5), 10 mM MgCl2, 25 mM NaCl, 0.01% BSA, 1 mM DTT, 0.5 mg/mL polyE4Y, and 35 μM ATP. Accordingly, compounds of the invention were dissolved in DMSO to make 10 mM initial stock solutions. Serial dilutions in DMSO were then made to obtain the final solutions for the assay. A 1.5 μL aliquot of DMSO or inhibitor in DMSO was added to each well, followed by the addition of ^33P-ATP, and finally the addition of c-Met and polyE4Y (obtained from Sigma). After 20 min, the reaction was quenched with 50 μL of 30% trichloroacetic acid (TCA) containing 4 mM ATP. The reaction mixture was transferred to the 0.66 mm GF filter plates (Corning) and washed three times with 5% TCA. Following the addition of 50 μL of Ultimate Gold™ high efficiency scintillant (Packard Bioscience), the samples were counted in a Packard TopCount NXT Microplate Scintillation and Luminescence Counter (Packard BioScience). The Ki values, shown in Table 2, were calculated using Microsoft Excel Solver macros to fit the data to the kinetic model for competitive tight-binding inhibition.

[2] = tested on: Snu5-AP1-Luc-Pest cells (c-Met); assay: Inhibition of c-Met activity in Snu5 gastric carcinoma cells (Snu5-AP1-Luc-Pest luciferase reporter); assay type: cell-based; conditions: Homo sapiens, SNU-5, 6 hours incubation, luciferase signal
Source text: Compounds of formula I were also screened for their ability to inhibit the Luciferase-induced signal in an engineered Snu5 cell line. Snu5 [obtained from American Type Culture Collection (Catalog number CRL-5973)] is a human gastric carcinoma known to overexpress c-Met, which is constitutively active. The cell line was transduced with the retrovirus, pCLPCX, which contains a genetic construct consisting of 6×AP 1 promoter response elements and a luciferase gene having a C-terminal PEST sequence (proteolytic signal from mouse ornithine decarboxylase, which reduces the half-life of the luciferase). The constitutively active c-Met activates cellular pathways (principally MAP kinase), resulting in AP-1-induced transcription of luciferase-PEST and translation into the final product, the activity of which is quantifiable as a chemiluminescent readout upon the addition of luciferin (Steady-Glo from Promega). Residual luminescence is strongly correlated to the inhibition of c-Met. A stable cell line was obtained by selecting the new cell line (Snu5-AP1-Luc-Pest) with puromycin. The cells were grown in complete media [Iscove's media (Invitrogen) containing 10% fetal bovine serum (FBS, Hyclone) and penicillin/gentamycin (Invitrogen)]. Compounds of the invention were dissolved in DMSO to make 10 mM initial stock solutions. Serial dilutions in DMSO were then made and transferred to complete medium to make a 10× solution. The Snu5-AP1-Luc-Pest cells were counted and diluted to 200,000-cells/mL solution. The cells (90 μL) were added to each well in a 96-well black with clear bottom plate (Costar). Then 10 μL of the 10× compound solution was added to the cells in triplicate. The plates were incubated in a 37° C./5% CO2 incubator. After 6 hours, 50 μL of the Steady-Glo reagent (Promega) was added to each well and placed on a plate shaker for 5 minutes to ensure that the cells were completely lysed. The plate was read on a 1450 Microbeta Liquid Scintillation and Luminescence Counter (Perkin-Elmer). The IC50 values, shown in Table 2, were calculated using a 4-parameter fit using the graphing software Prism (GraphPad).

[3] = target: T1, PDE3A (Homo sapiens, UniProt Q14432); assay: Inhibition of PDE3 (mobility-shift assay, LabChip 3000); assay type: biochemical; conditions: for IC50: PDE3A, iFL-cAMP substrate, 40 minute incubation; for activity against PDE3 compared with the respective enantiomer: statement in words in the summary
T1 construct: purchased BPS Bioscience 60030
T1 sequence (Q14432 669-1141 limits assumed): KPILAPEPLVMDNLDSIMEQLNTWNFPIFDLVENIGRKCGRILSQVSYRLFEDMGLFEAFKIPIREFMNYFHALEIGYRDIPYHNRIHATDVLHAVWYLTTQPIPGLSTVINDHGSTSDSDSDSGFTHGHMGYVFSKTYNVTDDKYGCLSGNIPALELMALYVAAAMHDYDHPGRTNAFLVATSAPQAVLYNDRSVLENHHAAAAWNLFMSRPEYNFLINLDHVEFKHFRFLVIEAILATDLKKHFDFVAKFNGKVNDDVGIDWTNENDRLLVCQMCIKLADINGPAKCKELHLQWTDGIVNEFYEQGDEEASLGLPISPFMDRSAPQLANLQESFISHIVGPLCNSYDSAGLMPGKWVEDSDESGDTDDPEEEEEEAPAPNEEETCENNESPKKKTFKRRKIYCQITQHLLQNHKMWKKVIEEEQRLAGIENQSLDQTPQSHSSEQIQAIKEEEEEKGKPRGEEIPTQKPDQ
Source text: Phosphodiesterase-3 (PDE3) is one of a family of phosphodiesterases responsible for the regulation of cyclic nucleotide second messengers. PDE3 enzymes are involved in regulation of cardiac and vascular smooth muscle contractility. Agents that inhibit PDE3 were originally investigated for the treatment of heart failure but have unwanted arrhythmic side effects. See Dart R. C., Medical Toxicology, Edition 3, page 708; Lippincott 2004.
Compounds of formula I were screened for their ability to inhibit PDE3 in a mobility-shift assay that quantitates the conversion of a flourescent analog of cyclic AMP to a flourescent analog of AMP using a LabChip 3000 (Caliper Life Sciences, Hopkinton, Mass.). Accordingly, a 0.6 μL aliquot of the test compound dissolved in DMSO was placed in a well of a 384-well plate, followed by the addition of a 15 μL aliquot of 200 ng/mL PDE3A (BPS Bioscience, San Diego, Calif., Catalog No. 60030) in 50 mM HEPES buffer at pH 7.5, containing 5 mM MgCl2 and 0.001% Brij-35 (Buffer A). The enzyme and compound were incubated at room temperature for 15 minutes, followed by the addition of a 15 μL aliquot of 2 μM iFL-cAMP (Caliper Life Sciences, Catalog No. 760444) in Buffer A. Following a 40 minute incubation at room temperature, the reaction was quenched by the addition of a 45 μL aliquot of 100 mM HEPES buffer at pH 7.5, containing 30 mM EDTA, 0.015% Brij-35, and 0.1% CR-3 (Caliper Life Sciences). […] Percent conversion was determined using HTS Well Analyzer software (Caliper Life Sciences, v5, SP2). IC50 values were determined using non-linear regression with Prism (v5.0a, GraphPad Software, Inc., La Jolla, Calif.).

Sequence of c-Met (P08581 25-1390): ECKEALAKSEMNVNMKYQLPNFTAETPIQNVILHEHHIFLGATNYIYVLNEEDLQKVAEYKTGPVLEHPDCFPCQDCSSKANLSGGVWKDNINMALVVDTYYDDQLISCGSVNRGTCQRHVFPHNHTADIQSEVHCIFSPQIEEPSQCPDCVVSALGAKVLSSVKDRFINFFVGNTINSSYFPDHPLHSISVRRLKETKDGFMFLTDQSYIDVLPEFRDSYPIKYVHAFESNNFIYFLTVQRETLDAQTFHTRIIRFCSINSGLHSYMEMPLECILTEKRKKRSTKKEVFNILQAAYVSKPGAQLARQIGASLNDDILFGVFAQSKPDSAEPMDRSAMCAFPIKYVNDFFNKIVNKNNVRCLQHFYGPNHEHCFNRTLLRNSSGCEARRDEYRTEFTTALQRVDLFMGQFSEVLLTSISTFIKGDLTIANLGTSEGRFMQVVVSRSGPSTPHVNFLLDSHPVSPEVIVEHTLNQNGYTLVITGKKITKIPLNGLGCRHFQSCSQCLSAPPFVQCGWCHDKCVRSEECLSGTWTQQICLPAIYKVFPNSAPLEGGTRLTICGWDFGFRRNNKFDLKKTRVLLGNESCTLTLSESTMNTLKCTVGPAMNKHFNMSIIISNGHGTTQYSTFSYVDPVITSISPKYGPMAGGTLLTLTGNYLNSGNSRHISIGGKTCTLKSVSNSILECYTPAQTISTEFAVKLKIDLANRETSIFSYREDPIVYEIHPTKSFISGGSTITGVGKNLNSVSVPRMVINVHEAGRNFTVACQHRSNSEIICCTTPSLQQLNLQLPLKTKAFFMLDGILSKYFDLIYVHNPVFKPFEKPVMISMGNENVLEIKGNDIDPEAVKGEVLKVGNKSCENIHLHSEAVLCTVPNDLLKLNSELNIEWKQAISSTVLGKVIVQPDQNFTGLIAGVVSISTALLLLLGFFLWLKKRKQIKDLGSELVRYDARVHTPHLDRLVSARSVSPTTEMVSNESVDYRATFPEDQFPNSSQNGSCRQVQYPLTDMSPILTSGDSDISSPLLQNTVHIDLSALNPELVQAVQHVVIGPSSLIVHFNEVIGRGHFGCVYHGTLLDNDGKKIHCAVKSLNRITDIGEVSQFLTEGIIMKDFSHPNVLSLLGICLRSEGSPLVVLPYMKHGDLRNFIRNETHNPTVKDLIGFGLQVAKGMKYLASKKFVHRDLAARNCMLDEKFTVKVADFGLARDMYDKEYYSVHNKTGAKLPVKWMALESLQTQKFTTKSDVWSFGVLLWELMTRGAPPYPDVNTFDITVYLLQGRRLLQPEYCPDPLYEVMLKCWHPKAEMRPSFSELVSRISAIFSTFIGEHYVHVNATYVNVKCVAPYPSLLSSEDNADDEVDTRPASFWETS

| Ki [1] | IC50 [2] | IC50 [3] | SMILES | activity against PDE3 compared with the respective enantiomer [3] |
| --- | --- | --- | --- | --- |
| < 300 nM | < 100 nM | 6600 nM | C[C@H](c1ccc2ncccc2c1)c1nnc2sc(-c3cnn(C)c3)nn12 [Compound 1, 6-((R)-1-(6-(1-methyl-1H-pyrazol-4-yl)-[1,2,4]triazolo[3,4-b][1,3,4]thiadiazol-3-yl)ethyl)quinoline] | surprisingly less active against PDE3 than their respective enantiomers |
| < 300 nM | < 100 nM | 760 nM | C[C@@H](c1ccc2ncccc2c1)c1nnc2sc(-c3cnn(C)c3)nn12 [Compound 1a] | – |
| < 300 nM | < 100 nM | 6150 nM | C[C@H](c1c(F)cc2ncccc2c1F)c1nnc2sc(-c3cnn(C)c3)nn12 [Compound 2, 5,7-difluoro-6-((R)-1-(6-(1-methyl-1H-pyrazol-4-yl)-[1,2,4]triazolo[3,4-b][1,3,4]thiadiazol-3-yl)ethyl)quinoline] | surprisingly less active against PDE3 than their respective enantiomers |
| < 300 nM | < 100 nM | 150 nM | C[C@@H](c1c(F)cc2ncccc2c1F)c1nnc2sc(-c3cnn(C)c3)nn12 [Compound 2a] | – |
